Activity calls are given as the source filed them. No cut-off for these calls is given here.
How the values were obtained:
[1] = Half life in human liver microsomes at 1 uM in presence of NADPH by LC-MS/MS analysis; format: ADME, Microsome
[2] = Intrinsic clearance in human liver microsomes at 1 uM in presence of NADPH by LC-MS/MS analysis; format: ADME, Microsome; settings: read-out: CLH
[3] = molecular target: Acetylcholinesterase (Electrophorus electricus) (UniProt O42275); assay: Inhibition of Electrophorus electricus AChE at 10 uM pre-incubated for 5 mins before acetylthiocholine iodide substrate addition and measured after 2 mins
[4] = molecular target: Cholinesterase (Equus caballus) (UniProt P81908); assay: Inhibition of equine serum BChE at 10 uM pre-incubated for 5 mins before butyrylthiocholine iodide substrate addition and measured after 2 mins
[5] = Effective permeability by PAMPA-BBB penetration assay; format: ADME; settings: read-out: Peff
Acetylcholinesterase = Acetylcholinesterase (Electrophorus electricus, UniProt O42275); assay: Inhibition of Electrophorus electricus AChE pre-incubated for 5 mins before acetylthiocholine iodide substrate addition and measured after 2 mins
Cholinesterase [6] = molecular target: T1, Cholinesterase (Equus caballus, UniProt P81908); assay: Inhibition of equine serum BChE pre-incubated for 5 mins before butyrylthiocholine iodide substrate addition and measured after 2 mins
Mus musculus [7] = assay: Improvement in cognition in ICR mouse model of Abeta(1-42)-induced cognition-impairment assessed as escape latency time at 15 mg/kg, po dosed from days 3 to 14 by Morris water maze test (reference value: 48.9 secs); format: functional
Mus musculus [8] = assay: Improvement in cognition in ICR mouse model of Abeta(1-42)-induced cognition-impairment assessed as improvement in trajectories to platform at 15 mg/kg, po dosed from days 3 to 14 by Morris water maze test; format: functional, organism-based
Mus musculus [9] = assay: Improvement in cognition in ICR mouse model of Abeta(1-42)-induced cognition-impairment assessed as spontaneous alternation performance level at 15 mg/kg, po dosed from days 3 to 14 and measured on day 15 by Y maze test (reference value: 34.43%); format: functional
Mus musculus [10] = assay: Reduction in the Abeta(1-42) peptide level in ICR mouse model of Abeta(1-42)-induced cognition-impairment at 15 mg/kg, po dosed from days 3 to 14 by ELISA relative to control; format: functional; parameters: scale not given: the % may be the effect or the level left
Cholinesterase [11] = molecular target: Cholinesterase (Homo sapiens, UniProt P06276); assay: Inhibition of human BChE pre-incubated for 5 mins before butyrylthiocholine iodide substrate addition and measured after 2 mins
Cholinesterase [12] = molecular target: T1, Cholinesterase; assay: Noncompetitive inhibition of equine serum BChE pre-incubated for 5 mins before butyrylthiocholine iodide substrate addition and measured after 2 mins by Lineweaver-Burk plot analysis
[13] = molecular target: Cholinesterase (Equus caballus) (UniProt P81908); assay: Noncompetitive inhibition of equine serum BChE assessed as reduction in enzymatic velocity pre-incubated for 5 mins before butyrylthiocholine iodide substrate addition and measured after 2 mins by Lineweaver-Burk plot analysis
PC-12 [14] = assay: Toxicity in rat PC12 cells assessed as reduction in cell viability at 2.5 to 50 uM incubated for 24 hrs by MTT assay; format: cell-based; settings: pc-12, 24 h
SH-SY5Y [15] = assay: Toxicity in human SH-SY5Y cells assessed as reduction in cell viability at 2.5 to 50 uM incubated for 24 hrs by MTT assay; format: cell-based
PC-12 [16] = assay: Toxicity in rat PC12 cells assessed as reduction in cell viability at 100 uM incubated for 24 hrs by MTT assay relative to control; format: cell-based; settings: pc-12, 24 h
SH-SY5Y [17] = assay: Toxicity in human SH-SY5Y cells assessed as reduction in cell viability at 100 uM incubated for 24 hrs by MTT assay relative to control; format: cell-based
L02 = assay: Toxicity in human L02 cells assessed as reduction in cell viability at 2.5 to 100 uM incubated for 24 hrs by MTT assay; format: cell-based; settings: l02, 24 h
HepG2 = assay: Toxicity in human HepG2 cells assessed as toxic dose for reduction in cell viability incubated for 24 hrs by MTT assay; format: cell-based; settings: hepg2, 24 h
[18] = Toxicity in ICR mouse assessed as induction of animal death at 1 mg/kg, ig; format: organism-based; settings: in vivo, po
[19] = Toxicity in ICR mouse assessed as induction of abnormal behaviors at 1 mg/kg, ig; format: organism-based; settings: in vivo, po
[20] = Toxicity in ICR mouse assessed as effect on body weight at 1 mg/kg, ig; format: organism-based; settings: in vivo, po
[21] = Hepatotoxicity in ICR mouse assessed as induction of pericentral necrosis at 30 mg/kg, ig measured after 8 to 36 hrs post dose by immunohistochemical staining assay; format: toxicity, organism-based; settings: in vivo, po
[22] = Hepatotoxicity in ICR mouse assessed as induction of fatty degeneration of hepatocytes of surrounding intermediate and periportal zones at 30 mg/kg, ig measured after 8 to 36 hrs post dose by immunohistochemical staining assay; format: toxicity, organism-based; settings: in vivo, po
SH-SY5Y [23] = assay: Neuroprotection against Abeta(1-42)-induced cytotoxicity in human SH-SY5Y cells assessed as increase in cell viability incubated for 1 hr before Abeta(1-42) challenge and measured after 24 hrs by MTT assay; format: functional, cell-based
Mus musculus [24] = assay: Improvement in cognition in ICR mouse model of scopolamine-induced cognition-impairment assessed as improvement in escape latency at 15 to 30 mg/kg, po dosed 30 mins before scopolamine challenge for 10 days by Morris water maze test; format: functional, organism-based
[25] = Toxicity in ICR mouse model of scopolamine-induced cognition-impairment assessed as induction of death at 15 to 30 mg/kg, po dosed 30 mins before scopolamine challenge for 10 days; format: organism-based; settings: in vivo
[26] = Toxicity in ICR mouse model of scopolamine-induced cognition-impairment assessed as induction of behavioral abnormities at 15 to 30 mg/kg, po dosed 30 mins before scopolamine challenge for 10 days; format: organism-based; settings: in vivo
Mus musculus [27] = assay: Improvement in cognition in ICR mouse model of scopolamine-induced cognition-impairment assessed as improvement in trajectories to platform at 15 to 30 mg/kg, po dosed 30 mins before scopolamine challenge for 10 days by Morris water maze test; format: functional, organism-based
[28] = Toxicity in ICR mouse model of Abeta(1-42)-induced cognition-impairment assessed as effect on body weight at 15 mg/kg, po dosed from days 3 to 14; format: organism-based; settings: in vivo
[29] = Selectivity index, ratio of inhibition of Electrophorus electricus AChE pre-incubated for 5 mins before acetylthiocholine iodide substrate addition and measured after 2 mins to IC50 for inhibition of equine serum BChE pre-incubated for 5 mins before butyrylthiocholine iodide substrate addition and measured after 2 mins

Acetylcholinesterase, sequence (O42275 whole entry): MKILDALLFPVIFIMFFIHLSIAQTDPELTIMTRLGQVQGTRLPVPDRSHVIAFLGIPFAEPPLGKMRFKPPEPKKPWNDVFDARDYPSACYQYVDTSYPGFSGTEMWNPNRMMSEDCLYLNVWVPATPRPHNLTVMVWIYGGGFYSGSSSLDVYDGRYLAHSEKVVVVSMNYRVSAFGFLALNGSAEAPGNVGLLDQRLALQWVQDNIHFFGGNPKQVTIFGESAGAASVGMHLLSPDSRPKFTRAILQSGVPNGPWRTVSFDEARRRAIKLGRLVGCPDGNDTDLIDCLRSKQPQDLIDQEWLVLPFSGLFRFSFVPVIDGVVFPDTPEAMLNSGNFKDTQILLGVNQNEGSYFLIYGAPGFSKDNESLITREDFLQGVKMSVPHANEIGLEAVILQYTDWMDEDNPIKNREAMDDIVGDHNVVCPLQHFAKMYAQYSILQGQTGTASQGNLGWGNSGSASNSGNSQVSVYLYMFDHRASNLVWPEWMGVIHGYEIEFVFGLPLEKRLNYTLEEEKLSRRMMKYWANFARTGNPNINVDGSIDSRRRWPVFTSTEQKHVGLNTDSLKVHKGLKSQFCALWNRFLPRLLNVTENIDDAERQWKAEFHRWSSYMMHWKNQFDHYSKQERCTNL
Acetylcholinesterase (Electrophorus electricus), sequence (O42275 24-633 limits assumed): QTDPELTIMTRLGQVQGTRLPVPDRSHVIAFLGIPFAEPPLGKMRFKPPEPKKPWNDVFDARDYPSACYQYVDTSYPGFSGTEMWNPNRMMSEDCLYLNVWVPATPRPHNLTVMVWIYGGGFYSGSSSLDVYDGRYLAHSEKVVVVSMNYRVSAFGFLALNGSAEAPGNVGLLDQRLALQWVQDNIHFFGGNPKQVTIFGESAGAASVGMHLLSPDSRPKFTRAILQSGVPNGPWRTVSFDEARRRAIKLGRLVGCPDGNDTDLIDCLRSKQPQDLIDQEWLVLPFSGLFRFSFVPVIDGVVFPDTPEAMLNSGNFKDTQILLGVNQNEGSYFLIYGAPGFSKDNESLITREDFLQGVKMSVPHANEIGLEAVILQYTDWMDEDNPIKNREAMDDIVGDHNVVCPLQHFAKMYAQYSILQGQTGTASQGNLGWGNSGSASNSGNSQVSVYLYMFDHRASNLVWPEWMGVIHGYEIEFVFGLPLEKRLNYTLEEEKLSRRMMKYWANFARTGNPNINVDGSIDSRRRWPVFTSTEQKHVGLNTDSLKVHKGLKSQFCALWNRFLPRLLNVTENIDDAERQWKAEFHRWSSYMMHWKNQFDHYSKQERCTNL
T1 sequence (P81908 whole entry): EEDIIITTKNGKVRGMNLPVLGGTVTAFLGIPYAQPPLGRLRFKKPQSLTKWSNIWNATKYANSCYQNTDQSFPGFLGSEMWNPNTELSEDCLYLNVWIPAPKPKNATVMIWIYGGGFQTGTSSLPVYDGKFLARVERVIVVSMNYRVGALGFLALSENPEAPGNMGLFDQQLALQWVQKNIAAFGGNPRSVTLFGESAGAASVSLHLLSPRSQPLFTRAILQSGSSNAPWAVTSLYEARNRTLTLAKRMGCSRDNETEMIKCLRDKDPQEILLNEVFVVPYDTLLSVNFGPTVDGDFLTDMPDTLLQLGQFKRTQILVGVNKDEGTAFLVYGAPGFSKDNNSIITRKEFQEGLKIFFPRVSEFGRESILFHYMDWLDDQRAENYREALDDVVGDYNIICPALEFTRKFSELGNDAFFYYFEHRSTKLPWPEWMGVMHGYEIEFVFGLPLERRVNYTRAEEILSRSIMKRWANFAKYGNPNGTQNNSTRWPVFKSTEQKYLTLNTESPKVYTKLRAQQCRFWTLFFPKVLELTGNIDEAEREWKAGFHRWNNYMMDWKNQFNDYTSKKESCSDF
Cholinesterase (Equus caballus), sequence (P81908 whole entry): as above
Cholinesterase (Homo sapiens, UniProt P06276), sequence (P06276 whole entry): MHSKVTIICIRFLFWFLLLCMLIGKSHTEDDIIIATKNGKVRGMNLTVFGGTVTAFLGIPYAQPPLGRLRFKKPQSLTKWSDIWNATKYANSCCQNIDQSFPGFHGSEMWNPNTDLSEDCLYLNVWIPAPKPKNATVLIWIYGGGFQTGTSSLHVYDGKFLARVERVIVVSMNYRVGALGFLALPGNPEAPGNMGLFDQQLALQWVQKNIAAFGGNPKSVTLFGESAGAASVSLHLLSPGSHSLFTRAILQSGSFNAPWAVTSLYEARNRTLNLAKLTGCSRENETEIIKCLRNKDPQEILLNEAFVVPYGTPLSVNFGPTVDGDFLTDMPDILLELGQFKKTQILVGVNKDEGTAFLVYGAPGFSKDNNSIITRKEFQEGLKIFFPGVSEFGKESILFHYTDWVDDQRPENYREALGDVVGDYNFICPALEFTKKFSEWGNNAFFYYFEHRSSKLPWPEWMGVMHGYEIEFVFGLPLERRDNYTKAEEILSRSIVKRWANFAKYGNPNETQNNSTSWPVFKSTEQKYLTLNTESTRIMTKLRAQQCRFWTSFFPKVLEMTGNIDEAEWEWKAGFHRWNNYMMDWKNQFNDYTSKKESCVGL

## O=C(c1ccc(F)cc1)C1CCN(CCn2c(=O)[nH]c3ccccc3c2=O)CC1 [KETANSERIN]
[1]
  half-life at 1 µM: 31.4 min
[2]
  CLint scaled at 1 µM: 55.3 mL/min/kg

## COc1ccc(-c2noc(CN(C(=O)c3ccc4c(c3)OCO4)C3CCCCC3)n2)cc1
[3]
  inhibition: -3.2%
[4]
  inhibition: 4.33%

## NCCc1ccc(O)c(O)c1 [DOPAMINE]
[5]
  Papp: 3.3 ×10⁻⁶ cm/s

## CN1C(C(=O)Nc2ccccn2)=C(O)c2ccccc2S1(=O)=O [PIROXICAM]
[5]
  Papp: 1.69 ×10⁻⁶ cm/s

## Cc1ccc(-c2nc3ccccc3o2)cc1NCc1cc(Cc2ccccc2)ccc1O
[3]
  inhibition: 6.25%
[4]
  inhibition: 8.49%

## Cc1ccc(OCc2nc(CN(CC(C)C)C(=O)c3ccc4c(c3)OCO4)cs2)cc1
[3]
  inhibition: -6.37%
[4]
  inhibition: 54%
Acetylcholinesterase
  IC50: 11 µM
Cholinesterase [6]
  IC50: 17.7 µM

## COc1ccc(C2=C(Nc3ccc4oc5ccccc5c4c3)c3ccccc3C2=O)cc1
[3]
  inhibition: 42.6%
[4]
  inhibition: 4.03%

## O=C(c1ccc(C(F)(F)F)cc1)N(CCc1nc(-c2ccc(C(F)(F)F)cc2)no1)Cc1ccco1
[3]
  inhibition: -0.61%

## Clc1cccc(Cl)c1N=C1NCCN1 [CLONIDINE]
[5]
  Papp: 8.8 ×10⁻⁶ cm/s

## C[C@]12CCC(=O)C=C1CC[C@@H]1[C@@H]2C(=O)C[C@]2(C)C(=O)CC[C@@H]12 [ADRENOTERONE]
[5]
  Papp: 6.05 ×10⁻⁶ cm/s

## COCCN(Cc1csc(COc2ccc(C)cc2)n1)C(=O)c1ccc(OC)cc1
[3]
  inhibition: 5.79%
[4]
  inhibition: 7.17%

## CN(C)CCCN1c2ccccc2Sc2ccc(Cl)cc21 [CHLORPROMAZINE]
[5]
  Papp: 12.4 ×10⁻⁶ cm/s

## CCc1noc(-c2cnc3nc(C)ccc3c2Nc2ccc3c(c2)OCCO3)n1
[3]
  inhibition: 50.6%
[4]
  inhibition: 1.63%
Acetylcholinesterase
  IC50: 1.56 µM

## CN(CCc1noc(-c2cc3ccccc3[nH]2)n1)C(=O)c1ccc(C(C)(C)C)cc1
[3]
  inhibition: 51.6%
[4]
  inhibition: 20.3%

## CCCN(Cc1csc(COc2ccc(C)cc2)n1)C(=O)c1ccc2c(c1)OCO2
[3]
  inhibition: -0.26%
[4]
  inhibition: 54.8%
Cholinesterase [6]
  IC50: 14.3 µM

## CN(CCc1noc(-c2cc3ccccc3[nH]2)n1)C(=O)c1ccc(N(C)C)cc1
[3]
  inhibition: 39.4%
[4]
  inhibition: 35.4%

## COc1cc2c(cc1OC)C(=O)C(CC1CCN(Cc3ccccc3)CC1)C2 (stereo not drawn) [DONEPEZIL]
Mus musculus [7]
  Time: 15.3 s
Mus musculus [8]
  Activity: Active
Mus musculus [9]
  Activity: 65.23%
Mus musculus [10]
  Activity: 24.08%

## COc1cc2c(cc1NC(=O)C(=O)c1c(-c3ccccc3)[nH]c3ccccc13)oc1ccccc12
[3]
  inhibition: -4.57%
[4]
  inhibition: 0.73%

## C[C@]12CC[C@@H]3c4ccc(O)cc4CC[C@H]3[C@@H]1CC[C@@H]2O [ESTRADIOL]
[5]
  Papp: 20.5 ×10⁻⁶ cm/s

## COc1ccc(-c2cccc(-n3cncc3C(=O)N3Cc4ccccc4C3)c2)cc1OC
[3]
  inhibition: 6.29%
[4]
  inhibition: 53.4%
Cholinesterase [6]
  IC50: 17.3 µM

## Cc1ccc2cc(NC(=O)Cn3c(-c4nonc4N)nc4ccccc43)ccc2n1
[3]
  inhibition: 15.3%
[4]
  inhibition: 96.5%
Acetylcholinesterase
  IC50: > 100 µM
Cholinesterase [6]
  IC50: 0.18 µM
Cholinesterase [11]
  IC50: 0.32 µM
Cholinesterase [12]
  Ki: 0.232 µM
[13]
  inhibition: Dose-dependent effect
PC-12 [14]
  Activity: Non-Toxic
SH-SY5Y [15]
  Activity: Non-Toxic
PC-12 [16]
  Activity: 50%
SH-SY5Y [17]
  Activity: 50%
L02
  Activity: Non-Toxic
HepG2
  Activity: > 20 µM
[18]
  Activity: Non-Toxic
[19]
  Activity: Non-Toxic
[20]
  Activity: Non-Toxic
[21]
  Activity: Non-Toxic
[22]
  Activity: Non-Toxic
[5]
  Papp: 7.84 ×10⁻⁶ cm/s
SH-SY5Y [23]
  Activity: Dose-dependent effect
Mus musculus [24]
  Activity: Dose-dependent effect
[25]
  Activity: Non-Toxic
[26]
  Activity: Non-Toxic
Mus musculus [27]
  Activity: Dose-dependent effect
Mus musculus [7]
  Time: 8.83 s
Mus musculus [8]
  Activity: Active
Mus musculus [9]
  Activity: 63.44%
[28]
  Activity: Non-Toxic
Mus musculus [10]
  Activity: 40.56%
[1]
  half-life at 1 µM: 41.9 min
[2]
  CLint scaled at 1 µM: 41.5 mL/min/kg
[29]
  Ratio IC50: > 500

## CC(=O)[C@H]1CC[C@H]2[C@@H]3CCC4=CC(=O)CC[C@]4(C)[C@H]3CC[C@]12C [PROGESTERONE]
[5]
  Papp: 15.5 ×10⁻⁶ cm/s
